From article PMC12067145 (ACS Medicinal Chemistry Letters, 2025)

Assays:
[1] = Liver microsome intrinsic clearance (rat); assay type: in vitro ADME; conditions: pH 7.4; rat liver microsomes; read-out: LMS CLINT rat
Procedure: After a 5 min preincubation, the reaction was initiated by the addition of NADPH (1 mM). At selected time intervals between 0 ~ 60 min (e.g. 0, 3, 7, 15, 25, 45 and/or 60 min), aliquots were taken and subsequently placed into a 96-well plate containing cold acetonitrile with an internal standard (50 ng/mL carbamazepine). Plates were then centrifuged at 3000 rcf (4 °C) for 10 min, and the supernatant was transferred to a separate 96-well plate and diluted 1:1 with water for LC/MS/MS analysis. The in vitro half-life (T 1/2, min, Eq. 1), intrinsic clearance (CLint, mL/min/kg, Eq. 2), and subsequent predicted hepatic clearance (CLhep, mL/min/kg, Eq. 3) were determined employing the following equations: […]
where k represents the slope from linear regression analysis of the natural log percent remaining of a test compound as a function of incubation time […]
(2) CLint = in vitroT1/2 x mg microsomes x gram liver x kg body wt ascale-up factors: of 20 (human) or 45 (rat) or 87.5 (mouse) […]
where Qh (hepatic blood flow, mL/min/kg) is 21 (human) or 70 (rat) or 90 (mouse).
LC/MS/MS Bioanalysis of Samples from Plasma Protein Binding and Intrinsic Clearance […]
Samples were analyzed on a Thermo Electron TSQ Quantum Ultra triple quad mass spectrometer (San Jose, CA) via electrospray ionization (ESI) with two Themo Electron Accella pumps (San Jose, CA), and a Leap Technologies CTC PAL autosampler (Carrboro, NC). Analytes were separated by gradient elution on a dual column system with two Thermo Hypersil Gold (2.1 x 30 mm, 1.9 µm) columns (San Jose, CA) thermostated at 40 °C. HPLC mobile phase A was 0.1% formic acid in water and mobile phase B was 0.1% formic acid in acetonitrile. The gradient started […]
for 0.2 min; returned to 10% B in 0.1 min. The total run time was 1.3 min and the HPLC flow rate was 0.8 mL/min. While pump 1 ran the gradient method, pump 2 equilibrated the alternate column isocratically at 10% B. Compound optimization, data collection, and processing were performed using Thermo Electron's QuickQuan software (v2.3) and Xcalibur (v2.0.7 SP1). […]

[2] = system: other K2P channels except TREK-2; assay: K2P channel selectivity (panel); assay type: cell-based
From the text: Herein we describe our continuing work on the K2P family of potassium ion channels with the chemical optimization of a selective and CNS penetrant series of TREK inhibitors, culminating in the discovery of ONO-TR-772 (VU6018042).

KCNQ1 = KCNQ1 (Homo sapiens, UniProt P51787); assay: Cardiac ion channel MPC selectivity panel; assay type: cell-based
[3] = Plasma protein binding (rat); assay type: in vitro ADME; conditions: pH 7.4, read-out: PPB rat
Procedure: 0.3% DMSO - ΔRatio of 1 µM control compound)x100
In vitro Plasma protein binding and Brain homogenate binding: Determination of fraction unbound (f u) in plasma was conducted in vitro via equilibrium dialysis using HTDialysis (HTD) membrane plates. The top half of the plate was filled with 100 uL of Dubelco’s Phosphate Buffered Saline, pH 7.4 (DPBS). Compounds were diluted into plasma from each species (5 µM final concentration), which was aliquoted in triplicate to the ‘bottom half’ of the prepared HTD plate wells. The HTD plate was sealed and incubated for 6 hours at 37 °C. Following incubation, each well (both top and bottom halves) were transferred (20 µL) to the corresponding wells of a 96-shallow-well (V-bottom) plate. The daughter plates were then matrix-matched (DPBS side wells received equal volume of plasma, and plasma side wells received equal volume of DPBS), and extraction solution (120 µL; acetonitrile containing 50 nM carbamazepine as IS) was added to all wells of both daughter plates to precipitate protein and extract test article. The plates were then sealed and centrifuged (3500 rcf) for 10 minutes at ambient temperature. […]
The unbound fraction (f u) was calculated following the equation below, and mean values for each species were calculated from 3 replicates. […] Fraction unbound for both plasma and brain samples was determined using Equation 4.

GABAA, Muscimol, Central = assay: Eurofins lead profiling screen (radioligand binding); set-up: species or system Rat
Muscarinic M1 = Muscarinic M1 (Homo sapiens, UniProt P11229); assay: as above
Adrenergic α1A = Adrenergic α1A (Rattus norvegicus, UniProt P43140); assay: as above
[4] = target: Epidermal Growth Factor (EGF) (Homo sapiens, UniProt P00533); assay: as above
Dopamine D4.2 = Dopamine D4.2 (Homo sapiens, UniProt P21917, DEL265-296); assay: as above
Dopamine D3 = Dopamine D3 (Homo sapiens, UniProt P35462); assay: as above
Purinergic P2Y = assay: as above; set-up: species or system Rat
[5] = system: Glutamate, NMDA, Phencyclidine; assay: as above; set-up: species or system Rat
[6] = target: Calcium Channel L-Type, Benzothiazepine (Rattus norvegicus, UniProt P22002); assay: as above
Rolipram = assay: as above; set-up: species or system Rat
Serotonin (5-HT2B) = Serotonin (5-HT2B) (Homo sapiens, UniProt P41595); assay: as above
Serotonin (5-HT1A) = Serotonin (5-HT1A) (Homo sapiens, UniProt P08908); assay: as above
Muscarinic M2 = Muscarinic M2 (Homo sapiens, UniProt P08172); assay: as above
Histamine H1 = Histamine H1 (Homo sapiens, UniProt P35367); assay: as above
Glutamate, NMDA, Agonism = assay: as above; set-up: species or system Rat

Epidermal Growth Factor (EGF), sequence (P00533 25-1210): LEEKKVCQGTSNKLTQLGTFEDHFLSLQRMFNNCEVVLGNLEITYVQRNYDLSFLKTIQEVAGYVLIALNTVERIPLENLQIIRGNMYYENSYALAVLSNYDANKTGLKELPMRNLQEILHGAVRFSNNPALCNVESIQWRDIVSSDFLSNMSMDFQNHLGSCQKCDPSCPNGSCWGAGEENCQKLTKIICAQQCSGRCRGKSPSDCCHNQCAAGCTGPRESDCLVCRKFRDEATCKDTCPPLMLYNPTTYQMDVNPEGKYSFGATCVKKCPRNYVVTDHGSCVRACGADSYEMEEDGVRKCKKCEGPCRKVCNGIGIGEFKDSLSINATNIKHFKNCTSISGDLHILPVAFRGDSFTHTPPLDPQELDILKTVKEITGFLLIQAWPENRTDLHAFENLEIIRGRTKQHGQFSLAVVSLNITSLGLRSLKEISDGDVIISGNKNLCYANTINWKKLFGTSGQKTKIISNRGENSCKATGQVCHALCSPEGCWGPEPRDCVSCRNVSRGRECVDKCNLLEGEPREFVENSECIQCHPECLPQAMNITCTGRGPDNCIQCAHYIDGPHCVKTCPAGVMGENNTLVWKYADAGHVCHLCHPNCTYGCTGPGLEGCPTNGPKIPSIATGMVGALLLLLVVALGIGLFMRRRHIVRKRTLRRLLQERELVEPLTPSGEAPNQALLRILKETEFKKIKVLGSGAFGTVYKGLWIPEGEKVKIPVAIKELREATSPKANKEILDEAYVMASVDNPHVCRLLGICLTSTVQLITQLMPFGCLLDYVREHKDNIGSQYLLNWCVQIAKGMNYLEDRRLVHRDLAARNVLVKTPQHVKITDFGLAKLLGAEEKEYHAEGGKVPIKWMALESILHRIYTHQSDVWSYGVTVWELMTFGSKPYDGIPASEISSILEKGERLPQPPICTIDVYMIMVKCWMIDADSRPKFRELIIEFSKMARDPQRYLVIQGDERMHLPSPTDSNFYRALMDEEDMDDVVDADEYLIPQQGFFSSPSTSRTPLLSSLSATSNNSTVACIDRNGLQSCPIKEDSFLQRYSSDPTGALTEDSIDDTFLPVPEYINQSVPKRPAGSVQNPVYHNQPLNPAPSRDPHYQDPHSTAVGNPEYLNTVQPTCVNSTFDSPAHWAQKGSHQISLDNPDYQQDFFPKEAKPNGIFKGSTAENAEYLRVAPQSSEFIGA
Serotonin (5-HT1A), sequence (P08908 whole entry): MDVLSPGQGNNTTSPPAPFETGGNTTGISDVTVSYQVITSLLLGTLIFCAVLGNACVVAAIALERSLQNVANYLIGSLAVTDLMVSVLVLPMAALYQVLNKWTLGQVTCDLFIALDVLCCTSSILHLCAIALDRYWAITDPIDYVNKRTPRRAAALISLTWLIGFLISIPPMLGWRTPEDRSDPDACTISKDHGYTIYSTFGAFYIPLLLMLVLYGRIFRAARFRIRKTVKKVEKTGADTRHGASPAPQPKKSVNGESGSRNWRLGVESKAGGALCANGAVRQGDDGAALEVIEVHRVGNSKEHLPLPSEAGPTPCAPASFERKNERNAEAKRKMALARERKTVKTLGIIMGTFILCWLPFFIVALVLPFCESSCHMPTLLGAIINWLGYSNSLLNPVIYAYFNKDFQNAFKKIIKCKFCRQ
Muscarinic M2, sequence (P08172 whole entry): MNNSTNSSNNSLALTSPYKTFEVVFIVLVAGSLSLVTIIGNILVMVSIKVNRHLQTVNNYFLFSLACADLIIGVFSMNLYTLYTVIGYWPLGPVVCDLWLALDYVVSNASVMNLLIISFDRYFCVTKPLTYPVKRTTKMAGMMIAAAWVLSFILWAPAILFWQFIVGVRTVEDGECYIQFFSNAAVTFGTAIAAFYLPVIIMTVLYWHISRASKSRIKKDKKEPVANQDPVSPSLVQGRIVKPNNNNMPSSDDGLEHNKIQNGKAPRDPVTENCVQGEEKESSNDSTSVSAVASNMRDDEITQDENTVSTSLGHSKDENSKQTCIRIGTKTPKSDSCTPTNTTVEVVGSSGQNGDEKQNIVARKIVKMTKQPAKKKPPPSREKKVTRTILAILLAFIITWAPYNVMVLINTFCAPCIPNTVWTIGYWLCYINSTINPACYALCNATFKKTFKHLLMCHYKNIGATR
Serotonin (5-HT2B), sequence (P41595 whole entry): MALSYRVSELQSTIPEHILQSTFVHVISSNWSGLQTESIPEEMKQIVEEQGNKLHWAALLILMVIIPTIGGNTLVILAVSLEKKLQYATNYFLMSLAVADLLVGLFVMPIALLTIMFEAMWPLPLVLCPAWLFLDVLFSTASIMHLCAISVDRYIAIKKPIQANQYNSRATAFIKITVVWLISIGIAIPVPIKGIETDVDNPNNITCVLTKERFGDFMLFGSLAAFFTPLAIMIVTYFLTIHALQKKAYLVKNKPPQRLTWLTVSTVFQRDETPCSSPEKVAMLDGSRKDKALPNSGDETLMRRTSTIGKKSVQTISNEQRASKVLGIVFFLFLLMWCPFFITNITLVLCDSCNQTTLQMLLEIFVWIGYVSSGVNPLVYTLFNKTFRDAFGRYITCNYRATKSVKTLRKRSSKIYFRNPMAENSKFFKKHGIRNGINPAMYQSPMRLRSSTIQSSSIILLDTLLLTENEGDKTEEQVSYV
Adrenergic α1A, sequence (P43140 whole entry): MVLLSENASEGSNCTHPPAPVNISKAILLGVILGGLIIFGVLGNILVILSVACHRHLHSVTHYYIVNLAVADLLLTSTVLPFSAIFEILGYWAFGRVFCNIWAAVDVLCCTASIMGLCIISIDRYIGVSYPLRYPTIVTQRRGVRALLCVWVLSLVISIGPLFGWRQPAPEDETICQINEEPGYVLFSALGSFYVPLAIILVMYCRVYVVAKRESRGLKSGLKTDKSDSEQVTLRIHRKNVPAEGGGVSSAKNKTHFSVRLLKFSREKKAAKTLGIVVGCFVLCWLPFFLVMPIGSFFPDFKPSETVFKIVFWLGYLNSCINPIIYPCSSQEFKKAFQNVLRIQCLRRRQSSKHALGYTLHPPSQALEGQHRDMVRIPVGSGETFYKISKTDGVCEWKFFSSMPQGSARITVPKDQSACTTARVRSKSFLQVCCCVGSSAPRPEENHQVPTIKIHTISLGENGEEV
Muscarinic M1, sequence (P11229 whole entry): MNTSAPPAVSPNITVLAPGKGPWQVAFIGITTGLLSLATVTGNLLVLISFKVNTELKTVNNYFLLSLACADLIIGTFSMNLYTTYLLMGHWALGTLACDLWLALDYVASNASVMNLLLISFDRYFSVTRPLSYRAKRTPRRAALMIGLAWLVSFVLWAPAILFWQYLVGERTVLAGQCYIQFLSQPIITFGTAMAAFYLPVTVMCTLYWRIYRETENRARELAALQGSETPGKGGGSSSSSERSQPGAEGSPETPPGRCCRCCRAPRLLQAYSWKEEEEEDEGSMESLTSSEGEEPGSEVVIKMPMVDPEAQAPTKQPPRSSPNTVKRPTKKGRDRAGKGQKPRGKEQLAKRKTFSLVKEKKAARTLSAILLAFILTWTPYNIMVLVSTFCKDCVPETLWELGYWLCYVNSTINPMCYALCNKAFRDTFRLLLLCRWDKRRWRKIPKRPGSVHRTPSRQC
Dopamine D3, sequence (P35462 whole entry): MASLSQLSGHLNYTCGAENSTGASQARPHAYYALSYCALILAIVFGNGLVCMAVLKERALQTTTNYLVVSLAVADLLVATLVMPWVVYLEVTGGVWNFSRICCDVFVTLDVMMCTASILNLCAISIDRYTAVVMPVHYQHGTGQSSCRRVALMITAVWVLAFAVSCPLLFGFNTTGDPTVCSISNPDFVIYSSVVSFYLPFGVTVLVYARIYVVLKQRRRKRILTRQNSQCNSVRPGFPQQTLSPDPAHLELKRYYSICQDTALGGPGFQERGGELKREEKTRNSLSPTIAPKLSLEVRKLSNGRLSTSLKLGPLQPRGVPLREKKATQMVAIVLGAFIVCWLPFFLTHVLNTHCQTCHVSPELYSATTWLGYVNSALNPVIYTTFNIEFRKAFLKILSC
Dopamine D4.2, sequence (P21917 with tags, fused parts or gaps DEL265-296): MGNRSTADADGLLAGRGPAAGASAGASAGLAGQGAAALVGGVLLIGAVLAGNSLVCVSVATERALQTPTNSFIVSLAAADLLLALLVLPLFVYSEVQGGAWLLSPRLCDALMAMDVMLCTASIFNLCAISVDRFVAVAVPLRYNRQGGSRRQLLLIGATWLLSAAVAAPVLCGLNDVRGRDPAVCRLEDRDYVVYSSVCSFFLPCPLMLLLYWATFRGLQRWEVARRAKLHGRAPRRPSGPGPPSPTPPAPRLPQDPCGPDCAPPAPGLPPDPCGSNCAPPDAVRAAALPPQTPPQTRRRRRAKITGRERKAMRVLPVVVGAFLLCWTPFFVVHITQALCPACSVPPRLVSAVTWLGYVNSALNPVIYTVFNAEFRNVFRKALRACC
Histamine H1, sequence (P35367 whole entry): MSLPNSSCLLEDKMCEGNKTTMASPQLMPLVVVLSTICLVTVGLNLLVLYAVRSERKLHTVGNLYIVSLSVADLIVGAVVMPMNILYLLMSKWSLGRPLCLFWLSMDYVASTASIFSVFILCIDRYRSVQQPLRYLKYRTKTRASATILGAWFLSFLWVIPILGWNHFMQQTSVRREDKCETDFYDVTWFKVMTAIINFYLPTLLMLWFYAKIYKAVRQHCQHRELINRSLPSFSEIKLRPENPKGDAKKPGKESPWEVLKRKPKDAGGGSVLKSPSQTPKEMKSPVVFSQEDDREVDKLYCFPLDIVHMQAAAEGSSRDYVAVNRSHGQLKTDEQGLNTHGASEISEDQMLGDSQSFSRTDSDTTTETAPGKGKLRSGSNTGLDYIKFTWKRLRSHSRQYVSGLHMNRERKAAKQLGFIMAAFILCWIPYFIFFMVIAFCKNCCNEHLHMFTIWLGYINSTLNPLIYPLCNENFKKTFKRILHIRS

Compound	CLint scaled at 1 µM [1] [mL/min/kg]	activity versus other K2P channels except TREK-2 [2] [µM]	% at 10 μM, KCNQ1 (KCNQ1) [%]	fraction unbound at 6 h, 5 µM [3]	% Inhibition at 10 µM (GABAA, Muscimol, Central) [%]	inhibition at 10 µM (Muscarinic M1) [%]	inhibition at 10 µM (Adrenergic α1A) [%]	inhibition at 10 µM [4] [%]	inhibition at 10 µM (Dopamine D4.2) [%]	inhibition at 10 µM (Dopamine D3) [%]	% Inhibition at 10 µM (Purinergic P2Y) [%]	% Inhibition at 10 µM [5] [%]	inhibition at 10 µM [6] [%]	% Inhibition at 10 µM (Rolipram) [%]	inhibition at 10 µM (Serotonin (5-HT2B)) [%]	inhibition at 10 µM (Serotonin (5-HT1A)) [%]	inhibition at 10 µM (Muscarinic M2) [%]	inhibition at 10 µM (Histamine H1) [%]	% Inhibition at 10 µM (Glutamate, NMDA, Agonism) [%]
Cc1cc(C#Cc2ccc(F)cc2)cnc1NC(=O)c1cc(NC(=O)OC(C)(C)C)ccc1Cl [Compound 14c]	29	> 10	< 50	0.001															
O=C(NCc1ccc(OC(F)(F)F)cc1F)c1ccc2ncnn2c1 [ONO-2920632]					2	4	40	-2	5	12	1	-15	56	5	31	4	0	12	2
